# ChEMBL document CHEMBL1128834, “Potent mammalian topoisomerase II inhibitors: 1-cyclopropyl-6,8-difluoro-1,4-dihydro-7-(2,6-dimethyl-4-pyridinyl)-4-substituted-quinolines” (Bioorg Med Chem Lett, 1995)
# System: Mus musculus
# Test: In vivo antitumor activity was observed in mice at a dose of […] administered intravenously, subcutaneously
# Assay type: functional
# Conditions: route intravenous
row,SMILES,T/C
1,Cc1cc(-c2c(F)cc3/c(=N/Nc4ccccn4)ccn(C4CC4)c3c2F)cc(C)n1,37%

# System: Mus musculus
# Test: In vivo antitumor activity was observed in mice at a dose of 96 mg/kg administered intravenously
# Assay type: functional
# Conditions: route intravenous
row,SMILES,T/C
1,COc1cc([C@@H]2c3cc4c(cc3[C@@H](O[C@@H]3O[C@@H]5CO[C@@H](C)O[C@H]5[C@H](O)[C@H]3O)[C@H]3COC(=O)[C@H]23)OCO4)cc(OC)c1O [ETOPOSIDE],3%

# System: P388
# Test: In vitro cytotoxicity was determined by quantitating P388 murine leukemia cells on a Coulter Counter following a 48 hour exposure of cells to the test compound
# Assay type: functional, cell-based
# Conditions: Mus musculus, P388, 48 h
row,SMILES,IC50
1,COc1cc([C@@H]2c3cc4c(cc3[C@@H](O[C@@H]3O[C@@H]5CO[C@@H](C)O[C@H]5[C@H](O)[C@H]3O)[C@H]3COC(=O)[C@H]23)OCO4)cc(OC)c1O [ETOPOSIDE],0.12 µM

# System: P388
# Test: In vitro cytotoxicity was determined by quantitating P388 murine leukemia cells on a coultier counter following a 48 hour exposure of cells to the test compound
# Assay type: functional, cell-based
# Conditions: Mus musculus, P388, 48 h
row,SMILES,IC50
1,Cc1cc(-c2c(F)cc3c(=O)ccn(C4CC4)c3c2F)cc(C)n1,9.7 µM
2,Cc1cc(-c2c(F)cc3/c(=N/N(C)C)ccn(C4CC4)c3c2F)cc(C)n1,0.27 µM
3,Cc1cc(-c2c(F)cc3/c(=N/Nc4ccccn4)ccn(C4CC4)c3c2F)cc(C)n1,1 µM

# System: P388
# Test: In vitro cytotoxicity was determined by quantitating P388 murine leukemia cells on a oultier counter following a 48 hour exposure of cells to the test compound
# Assay type: functional, cell-based
# Conditions: Mus musculus, P388, 48 h
row,SMILES,IC50
1,Cc1cc(-c2c(F)cc3/c(=N/N)ccn(C4CC4)c3c2F)cc(C)n1,3 µM

# Biological target: DNA topoisomerase II (Homo sapiens, UniProt P11388+Q02880)
# Test: Inhibitory activity in a cell-free assay of DNA cleavage mediated by purified HeLa cell topoisomerase II.
# Conditions: not given
row,SMILES,EC50
1,Cc1cc(-c2c(F)cc3c(=S)ccn(C4CC4)c3c2F)cc(C)n1,76 µM
2,Cc1cc(-c2c(F)cc3/c(=N/CCN(C)C)ccn(C4CC4)c3c2F)cc(C)n1,14 µM
3,Cc1cc(-c2c(F)cc3c(c2F)N(C2CC2)C=CC3=C(C#N)C#N)cc(C)n1,6.3 µM
4,Cc1cc(-c2c(F)cc3/c(=N/c4ccccc4O)ccn(C4CC4)c3c2F)cc(C)n1,1.6 µM
5,Cc1cc(-c2c(F)cc3/c(=N/Sc4ccc(Cl)cc4)ccn(C4CC4)c3c2F)cc(C)n1,9.4 µM
6,Cc1cc(-c2c(F)cc3/c(=N/C4CC4)ccn(C4CC4)c3c2F)cc(C)n1,2.4 µM
7,Cc1cc(-c2c(F)cc3/c(=N/c4ccc(N)cc4)ccn(C4CC4)c3c2F)cc(C)n1,7.6 µM
8,Cc1cc(-c2c(F)cc3/c(=N/N4C(=O)c5ccccc5C4=O)ccn(C4CC4)c3c2F)cc(C)n1,16 µM
9,Cc1cc(-c2c(F)cc3/c(=N\O)ccn(C4CC4)c3c2F)cc(C)n1,1.4 µM
10,CO/N=c1/ccn(C2CC2)c2c(F)c(-c3cc(C)nc(C)c3)c(F)cc12,2.6 µM
11,Cc1cc(-c2c(F)cc3/c(=N/N(C)C)ccn(C4CC4)c3c2F)cc(C)n1,2.3 µM
12,Cc1cc(-c2c(F)cc3/c(=N/NC(N)=O)ccn(C4CC4)c3c2F)cc(C)n1,3.1 µM
13,Cc1cc(-c2c(F)cc3/c(=N/NCCO)ccn(C4CC4)c3c2F)cc(C)n1,3.2 µM
14,Cc1cc(-c2c(F)cc3/c(=N/c4ccccn4)ccn(C4CC4)c3c2F)cc(C)n1,3.6 µM
15,Cc1cc(-c2c(F)cc3/c(=N/CCCN(C)C)ccn(C4CC4)c3c2F)cc(C)n1,5.5 µM
16,CCOC(=O)/C(C#N)=C1\C=CN(C2CC2)c2c1cc(F)c(-c1cc(C)nc(C)c1)c2F,4.8 µM
17,Cc1cc(-c2c(F)cc3/c(=N/Nc4c5ccccc5nc5ccccc45)ccn(C4CC4)c3c2F)cc(C)n1,21 µM
18,Cc1ccc(S(=O)(=O)/N=c2\ccn(C3CC3)c3c(F)c(-c4cc(C)nc(C)c4)c(F)cc23)cc1,45 µM
19,Cc1cc(-c2c(F)cc3c(=N)ccn(C4CC4)c3c2F)cc(C)n1,12 µM
20,Cc1cc(-c2c(F)cc3/c(=N/Nc4cnc5ccccc5c4)ccn(C4CC4)c3c2F)cc(C)n1,92 µM
21,Cc1cc(-c2c(F)cc3/c(=N/N)ccn(C4CC4)c3c2F)cc(C)n1,1.7 µM
22,Cc1cc(-c2c(F)cc3c(c2F)N(C2CC2)C=C/C3=C/C#N)cc(C)n1,4 µM
23,Cc1cc(-c2c(F)cc3/c(=N/Sc4ccccn4)ccn(C4CC4)c3c2F)cc(C)n1,3.8 µM
24,Cc1cc(-c2c(F)cc3/c(=N/Nc4ccccn4)ccn(C4CC4)c3c2F)cc(C)n1,0.98 µM
25,CN/N=c1\ccn(C2CC2)c2c(F)c(-c3cc(C)nc(C)c3)c(F)cc12,1.9 µM
26,CC(=O)N/N=c1\ccn(C2CC2)c2c(F)c(-c3cc(C)nc(C)c3)c(F)cc12,20 µM

# Same assay, conditions: read-out: EC50
row,SMILES,EC50
1,Cc1cc(-c2c(F)cc3c4nn(-c5ccccc5)c(=O)c-4cn(C4CC4)c3c2F)cc(C)n1,2.7 µM
